Source: patent US8247377B2, “Non-steroidal glucocorticoid inhibitors and their use in treating inflammation, allergy and auto-immune conditions” (Glaxo Group Limited, priority 2006, dated 2012)

Tests used:
glucocorticoid receptor = molecular target: T1, glucocorticoid receptor (Homo sapiens, UniProt P04150); assay: Glucocorticoid receptor binding assay (fluorescence polarisation); settings: competition with Alexa 555 fluorescently-labelled dexamethasone derivative, full length glucocorticoid receptor; read-out: glucocorticoid binding pIC50 (converted)
T1 construct: a partially purified full length glucocorticoid receptor
T1 sequence (P04150 1-777): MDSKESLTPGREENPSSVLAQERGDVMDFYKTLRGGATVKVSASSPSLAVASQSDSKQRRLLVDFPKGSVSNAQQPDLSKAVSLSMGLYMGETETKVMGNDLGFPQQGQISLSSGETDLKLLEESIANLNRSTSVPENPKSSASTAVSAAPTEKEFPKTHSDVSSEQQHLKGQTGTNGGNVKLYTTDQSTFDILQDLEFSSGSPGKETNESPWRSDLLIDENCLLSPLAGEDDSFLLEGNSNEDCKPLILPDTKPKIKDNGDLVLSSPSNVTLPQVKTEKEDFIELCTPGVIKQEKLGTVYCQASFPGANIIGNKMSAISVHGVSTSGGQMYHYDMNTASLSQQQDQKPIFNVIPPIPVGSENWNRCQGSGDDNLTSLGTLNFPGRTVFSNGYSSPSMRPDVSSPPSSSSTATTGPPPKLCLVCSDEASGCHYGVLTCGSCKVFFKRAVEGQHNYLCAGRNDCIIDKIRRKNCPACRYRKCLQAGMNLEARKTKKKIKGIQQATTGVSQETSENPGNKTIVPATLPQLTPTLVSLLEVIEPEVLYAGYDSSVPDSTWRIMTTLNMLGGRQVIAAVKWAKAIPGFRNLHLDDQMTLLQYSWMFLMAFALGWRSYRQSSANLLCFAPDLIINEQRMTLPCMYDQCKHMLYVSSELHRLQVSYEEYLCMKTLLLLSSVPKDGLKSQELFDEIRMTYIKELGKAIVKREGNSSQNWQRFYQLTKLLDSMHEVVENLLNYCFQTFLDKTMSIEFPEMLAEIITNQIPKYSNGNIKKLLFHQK
Experimental: Compounds were solvated and diluted in DMSO, and transferred directly into assay plates. Fluorescent dexamethasone and a partially purified full length glucocorticoid receptor were added to the plates, together with buffer components to stabilise the GR protein and incubated at room temperature for 2 hrs in the dark. Binding of each compound was assessed by analysing the displacement of fluorescent ligand by measuring the decrease in fluorescence polarisation signal from the mixture. Dose response curves were constructed from which pIC50 values were estimated.

NFκB = NFκB agonist assay in A549 SPAP cells; type: cell-based; settings: Homo sapiens; for Emax: A549, A549 SPAP cells, >85% = full agonist, ≧20% = partial or full agonist, read-out: average maximum asymptote in the NFkB assay; for IC50: A549 SPAP cells, TNFα 3.2 ng/ml, read-out: pIC50 for the NFkB assay (converted);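 as to average maximum asymptote in the NFkB assay: maximum inhibition of the TNFα-induced NFκB-driven signal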
Source text: Human lung carcinoma A549 cell line (ECACC No. 86012804) has been stably transfected in house with a plasmid containing an ELAM promoter sequence that has a NFκB response element within it. Stimulation of the cell line with TNFα results in intracellular signal transduction and ultimately translocation of NFκB into the nucleus. This activates the inserted DNA sequence resulting in transcription of the integrated SPAP gene, which is quantified using a colorimetric assay. […] The stably transfected cell line was grown as a monolayer in DMEM supplemented with FCS-HI (10%), Non-essential amino acids (1%), L-Glutamine (2 mM), Pen/Strep (1%) and Geneticin (50 mg/ml).
A 70% confluent T225 flask of A549 SPAP cells was harvested by centrifugation for 5 min at 200 g, resuspended in assay buffer (DMEM supplemented with 10% FCS 2×HI, 2 mM L-Glutamine, 1% Pen/Strep and Non essential amino acids) and diluted to 0.16×10^6/ml. 60 μl of cell solution was dispensed to each well of clear Nunc 384-well plates, containing compound at the required concentration. Plates were incubated for 1 h at 37° C., 95% humidity, 5% CO2 before 10 μl of TNFα was added at final concentration of 3.2 ng/ml and then returned to the cell incubator for 15 h. Plates were equilibrated to room temperature for 1 h prior to the addition of 25 μl of pNPP buffer (1M Diethanolamine pH 9.8, 0.5 mM MgCl2, 0.28M NaCl, 2 mg/ml pNPP) to each well of assay plates. The plates were covered to protect the reagents from light, and then incubated at room temperature for approximately 1 hour before reading them on an Ascent using a 405 nm single filter. Dose response curves were constructed from which pIC50 values were estimated.

MMTV promoter = assay: MMTV agonist assay in A549 MMTV cells; type: cell-based; settings: Homo sapiens, A549, 6 h, >85% = full agonist, >20% and <85% = partial or efficacy selective agonist, read-out: average maximum asymptote in the MMTV agonist assay
Source text: Human lung carcinoma A549 cell line (ECACC No. 86012804) has been stably transfected in house with a plasmid containing a renilla luciferase reporter with an MMTV promoter. Stimulation of the cell line with GR agonists results in intracellular signal transduction and ultimately translocation of GR into the nucleus. This activates the inserted DNA sequence resulting in transcription of the integrated luciferase gene, which is quantified using a light emission. The stably transfected cell line was grown as a monolayer in DMEM supplemented with FCS-HI (10%), Non-essential amino acids (1%), L-Glutamine (2 mM), Pen/Strep (1%) and Geneticin (50 mg/ml).
A 90% confluent T175 flask of A549 MMTV cells was harvested by centrifugation for 5 min at 200 g, resuspended in assay buffer (DMEM supplemented with 10% FCS 2×HI, 2 mM Glutamax, Non essential amino acids and 25 mM HEPES) and diluted to 0.1×10^6/ml. 70 μl of cell solution was dispensed to each well of white Nunc 384-well plates, containing compound at the required concentration. Plates were incubated for 6 h at 37° C., 95% humidity, 5% CO2. Plates were equilibrated to room temperature for 1 h prior to the addition of 10 μl of Renilla substrate to each well of assay plates. The plates were covered to protect the reagents from light, and then incubated at room temperature for approximately 15 mins before reading them on a Viewlux. Dose response curves were constructed from which pEC50 and maximum asymptote values were estimated.

progesterone receptor = molecular target: T2, progesterone receptor (Homo sapiens, UniProt P06401); assay: Assay for progesterone receptor activity (CV-1 cells, PRb-BacMam/MMTV-BacMam); type: cell-based; settings: CV-1 cells transduced with PRb-BacMam and MMTV-BacMam; read-out: pEC50 progesterone receptor activity (converted)
T2 construct: expressed in transfected cells; host or cells: CV-1 cells transduced with PRb-BacMam and MMTV-BacMam
T2 sequence (P06401 1-933): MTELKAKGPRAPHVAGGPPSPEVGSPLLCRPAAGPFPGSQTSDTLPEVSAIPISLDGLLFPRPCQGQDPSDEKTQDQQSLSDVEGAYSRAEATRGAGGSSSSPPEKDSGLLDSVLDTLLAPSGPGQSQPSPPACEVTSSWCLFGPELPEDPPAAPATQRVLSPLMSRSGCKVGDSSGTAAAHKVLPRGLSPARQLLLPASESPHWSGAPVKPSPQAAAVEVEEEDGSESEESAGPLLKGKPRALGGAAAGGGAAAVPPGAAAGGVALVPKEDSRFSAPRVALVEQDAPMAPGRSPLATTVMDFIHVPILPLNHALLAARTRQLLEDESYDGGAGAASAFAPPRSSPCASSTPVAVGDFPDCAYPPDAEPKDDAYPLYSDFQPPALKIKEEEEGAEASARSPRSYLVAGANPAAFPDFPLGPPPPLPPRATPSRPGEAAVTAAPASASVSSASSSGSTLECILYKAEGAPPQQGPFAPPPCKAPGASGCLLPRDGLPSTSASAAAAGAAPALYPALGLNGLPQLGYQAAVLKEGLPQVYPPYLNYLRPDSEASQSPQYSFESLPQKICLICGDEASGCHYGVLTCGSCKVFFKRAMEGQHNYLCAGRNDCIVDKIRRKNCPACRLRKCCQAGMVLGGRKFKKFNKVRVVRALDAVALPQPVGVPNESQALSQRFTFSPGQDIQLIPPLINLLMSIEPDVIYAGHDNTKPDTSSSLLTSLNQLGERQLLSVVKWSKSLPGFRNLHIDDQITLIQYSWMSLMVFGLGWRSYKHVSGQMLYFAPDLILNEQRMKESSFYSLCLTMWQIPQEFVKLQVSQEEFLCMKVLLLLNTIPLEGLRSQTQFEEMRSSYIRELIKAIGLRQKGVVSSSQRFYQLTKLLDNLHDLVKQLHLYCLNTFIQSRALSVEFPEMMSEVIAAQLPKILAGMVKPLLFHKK
Experimental: A T225 flask of CV-1 cells at a density of 80% confluency was washed with PBS, detached from the flask using 0.25% trypsin and counted using a Sysmex KX-21N. Cells were diluted in DMEM containing 10% Hyclone, 2 mM L-Glutamate and 1% Pen/Strep at 140 cells/μl and transduced with 10% PRb-BacMam and 10% MMTV-BacMam. […] of suspension cells were dispensed to each well of white Nunc 384-well plates, containing compounds at the required concentration. After 24 h 10 μl of Steadylite were added to each well of the plates. Plates were incubated in the dark for 10 min before reading them on a Viewlux reader. Dose response curves were constructed from which pEC50 values were estimated.

[1] = Assay for brain penetrance; type: in vivo; settings: brain and plasma, rat, single intravenous dose 1 mg/kg, read-out: brain to plasma ratio
Experimental: Each rat received a single intravenous dose at a level of 1 mg/kg. The dose was formulated in 10% DMSO/50% PEG200/40% sterile water. Terminal blood samples were taken at 5 or 15 minutes after dosing, by cardiac puncture following anaesthesia with isofluorane. The brains were removed at the same time point.
The compounds were extracted from 20 μL plasma by protein precipitation using 120 μL acetonitrile containing an analogue compound as an internal standard. The filtered extracts were collected into a 96 well plate and were diluted with an equal volume of 10% acetonitrile containing 0.1% formic acid in water (v/v). The plate was then mixed on a plate shaker for at least 5 minutes before analysis by LC-MS/MS against a calibration line prepared in control plasma.
Each brain was weighed, then homogenised in 3 ml acetonitrile:water (10:90 v/v). The compounds were extracted from 200 μL of the resulting homogenate by protein precipitation using 600 μL acetonitrile containing an analogue compound as an internal standard. The extracts were centrifuged and 150 μl of each was filtered and transferred to a 96 well plate. The aliquot was diluted with 10% acetonitrile containing 0.1% formic acid in water (v/v). The plate was mixed on a plate shaker for at least 5 minutes before analysis by LC-MS/MS against a calibration line prepared in control brain homogenate.

Structure (SMILES): Nc1c(C(=O)NCC(O)(CN(CCF)C(=O)c2c(F)cccc2Cl)C(F)(F)F)cnn1-c1ccc(F)cc1 (racemic) [Example 29 (racemic), 5-amino-N-(2-{[[(2-chloro-6-fluorophenyl)carbonyl](2-fluoroethyl)amino]methyl}-3,3,3-trifluoro-2-hydroxypropyl)-1-(4-fluorophenyl)-1H-pyrazole-4-carboxamide]
- IC50 (glucocorticoid receptor): ≤ 316 nM
- Emax (NFκB): > 85%
- IC50 (NFκB): < 1000 nM
- Emax (MMTV promoter): > 85%

Structure (SMILES): CCN(CC(O)(CNC(=O)c1cnn(-c2ccccc2Cl)c1N)C(F)(F)F)C(=O)c1c(F)cccc1F (racemic) [Example 40 (racemic), 5-amino-1-(2-chlorophenyl)-N-(2-{[[(2,6-difluorophenyl)carbonyl](ethyl)amino]methyl}-3,3,3-trifluoro-2-hydroxypropyl)-1H-pyrazole-4-carboxamide]
- IC50 (glucocorticoid receptor): ≤ 316 nM
- Emax (NFκB): > 85%
- IC50 (NFκB): < 1000 nM
- Emax (MMTV promoter): > 85%

Structure (SMILES): Nc1c(C(=O)NCC(O)(CNC(=O)c2c(Cl)cccc2C(F)(F)F)C(F)(F)F)cnn1-c1ccc(F)cc1 (racemic) [Example 44 (racemic), 5-Amino-N-{2-[({[2-chloro-6-(trifluoromethyl)phenyl]carbonyl}amino)methyl]-3,3,3-trifluoro-2-hydroxypropyl}-1-(4-fluorophenyl)-1H-pyrazole-4-carboxamide]
- IC50 (glucocorticoid receptor): ≤ 316 nM
- Emax (NFκB): ≥ 20%
- IC50 (NFκB): < 1000 nM
- Emax (MMTV promoter): 20 to 85%

Structure (SMILES): CN(CC(O)(CNC(=O)c1cnn(-c2ccc(F)cc2)c1N)C(F)(F)F)C(=O)c1c(Cl)cccc1Cl (single isomer, unassigned) [Example 1 Enantiomer 1, 5-Amino-N-(2-{[[(2,6-dichlorophenyl)carbonyl](methyl)amino]methyl}-3,3,3-trifluoro-2-hydroxypropyl)-1-(4-fluorophenyl)-1H-pyrazole-4-carboxamide]
- IC50 (glucocorticoid receptor): ≤ 316 nM
- IC50 (NFκB): < 1000 nM
- EC50 (progesterone receptor): > 1000 nM
- Kp at 5 min [1]: ≥ 0.1

Structure (SMILES): Nc1c(C(=O)NCC(O)(CNC(=O)c2c(C(F)(F)F)cccc2C(F)(F)F)C(F)(F)F)cnn1-c1ccc(F)cc1 (single isomer, unassigned) [Example 15 Enantiomer 1, 5-amino-N-{2-[({[2,6-bis(trifluoromethyl)phenyl]carbonyl}amino)methyl]-3,3,3-trifluoro-2-hydroxypropyl}-1-(4-fluorophenyl)-1H-pyrazole-4-carboxamide]
- IC50 (glucocorticoid receptor): ≤ 316 nM
- Emax (NFκB): ≥ 20%
- Emax (MMTV promoter): 20 to 85%
- EC50 (progesterone receptor): > 1000 nM

Structure (SMILES): Nc1c(C(=O)NCC(O)(CNC(=O)c2c(F)cccc2C(F)(F)F)C(F)(F)F)cnn1-c1ccc(F)cc1 (single isomer, unassigned) [Example 19 Enantiomer 1, 5-amino-1-(4-fluorophenyl)-N-{3,3,3-trifluoro-2-[({[2-fluoro-6-(trifluoromethyl)phenyl]carbonyl}amino)methyl]-2-hydroxypropyl}-1H-pyrazole-4-carboxamide]
- IC50 (glucocorticoid receptor): ≤ 316 nM
- Emax (NFκB): ≥ 20%
- IC50 (NFκB): < 1000 nM
- Emax (MMTV promoter): 20 to 85%
